Data reported in patent US5589510A, “Method for inhibiting retroviral infection by administering a naphthalenesulfonic acid compound” (priority 1995, dated 1996).
Values joined by “and” are separate entries in the source; they are usually repeats but may differ in a detail not shown here. Identical values can stand only once. Like-named read-outs stand apart in the source and are kept apart here.

Assays:
reverse transcriptase = settings: literature (Balzarini et al.); cited from earlier work
retroviruses = settings: literature (Ito et al.); cited from earlier work
[1] = system: HIV-1 patient isolate NIH 900285; experiment: Inhibition of HIV-1 patient isolate NIH 900285 in PBMCs; type: cell-based; settings: Human immunodeficiency virus 1, PBMC, 288 h, 10% FCS, read-out: % Inhibition (after day 12)
Description: (§1) The inhibitory effects of additional naphthalenesulfonic acid compounds were tested as follows: Experimental Details:
(§2) PBMCs were activated for 48 hours in conditioned medium containing PHA at a concentration of 4 μg/ml. Thereafter 10^6 cells were plated in each of the 24 well plates containing 10% FCS or 50% FCS. The test compound, previously dissolved in a glucose solution (1 mg/ml), was then added to each of the wells to achieve the appropriate concentration. The plate was then incubated overnight (about 15 hours) after which 50 μl of cell-free HIV-1 patient isolate was added to each well. The plates were incubated for further 6 to 8 hours after which all free floating solution of virus was washed off. Washing was performed four times.
(§3) After removal of the virus, all cultures were resuspended in conditioned medium containing 10% FCS.
(§4) For control experiments virus growth was monitored in either 10% FCS or 50% FCS throughout the observation period (15 days).

LD50, intravenous, mice = type: in vivo; settings: female mice, mortalities within 1 week; for LD50 at 168 h: mouse, in vivo
Description: The test material was administered intravenously to 5 female mice in five increasing doses. Mortalities were recorded within 1 week, and the LD50 was determined with the aid of statistical calculations.

HIV-1 patient isolate IH [2] = experiment: Inhibition of HIV-1 patient isolate IH in PBMCs; type: cell-based; settings: Human immunodeficiency virus 1, PBMC, 288 h, read-out: % Inhibition (after day 12); for inhibition at 2.5 µg/mL: 2.5 μg/ml; for inhibition at 5 µg/mL: 5 μg/ml; for inhibition at 10 µg/mL: 10 μg/ml; for inhibition at 20 µg/mL: 20 μg/ml
Description: as §1
as §2, with “Thereafter 10^6 cells were plated in each of the 24 well plates containing 10% FCS or 50% FCS.” left out
as §3, §4

[3] = target: T1, recombinant reverse transcriptase (RT) (Human immunodeficiency virus type 1 group M subtype B, UniProt P04585); experiment: Reverse transcriptase inhibition assay; type: biochemical, HIV-1
T1 construct: purchased Worthington Biochemical Corporation
Description: Inhibition of recombinant reverse transcriptase (RT) was performed by using commercially available Boehringer Mannheim RT assay kit (Cat. No. 1468 120) based on incorporation of digoxigenin labeled dUTP into DNA. Recombinant enzyme from HIV-1 was purchased from Worthington Biochemical Corporation. The level of anti-RT activity in the sample was determined by measurement of absorbance using an ELISA reader at 405 nm.

HIV-1 RF = experiment: Antiviral assay, Experimental Protocol I (compound added after infection); type: cell-based; settings: Human immunodeficiency virus 1, 240 h, p24 ELISA, read-out: % Inhibition (after day 10); for inhibition at 0.6 µg/mL: 0.6 μg/ml; for inhibition at 1.25 µg/mL: 1.25 μg/ml; for inhibition at 2.5 µg/mL: 2.5 μg/ml; for inhibition at 5 µg/mL: 5 μg/ml
[4] = system: TA98, TA1535, TA1537, TA1538, TA100 and W2P2uvr; experiment: Ames Test (in the presence of S9); type: cell-based, Salmonella typhimurium; settings: for Ames Test, specific mutagenic activity: the higher the value, the higher the mutagenicity
From the text: Six Salmonella typhimuriumstrai strains, TA98, TA1535, TA1537, TA1538, TA100 and W2P2uvr were used in this experiment.

HIV-1 RF strain = experiment: SCID mouse model (SCID-hu mice infected with HIV-1); type: in vivo
Description: Immunodeficient CB-17 SCID (severe combined immunodeficient) mice were reconstituted with human peripheral blood cells (Scid-hu). Two weeks after engraftment, the presence of human IgG indicating the presence of functional T and B cells was confirmed. Four weeks after engraftment, SCID-hu mice were infected with 10^6 tissue culture infectious doses/ml (TCID) of RF strain by ip injection.
Twenty-four hours after infection, 8 infected mice were treated daily with Compound 6 aqueous 5% glucose solution by ip injection at a dose of 50 mg/kg for only five days. The same dose of D-(+)-glucose was injected into SCID hu mice as a control. One month after final ip dose, peritoneal cells from the mice were cocultured with human lymphocytes. After four weeks, cultures were scored for the production of virus by assaying HIV-1 p24 levels in the supernatant. […] On the other hand, 5 of the 8 control mice had cultivated virus.

syncytium formation = settings: literature (Mohan et al.; Tan et al.; Baba et al.); cited from earlier work
HIV-1 patient isolate IH [5] = experiment: Inhibition of HIV-1 patient isolate IH in CD4^+ cells; type: cell-based; settings: Human immunodeficiency virus 1, 288 h, 10% FCS, read-out: % Inhibition (after day 12)
Description: as §1, §2, §3, §4

HIV rgp120 / CD4 cells = settings: literature (Balzarini et al.); cited from earlier work
standard Ames Test = settings: literature (K-T. Chung et al); cited from earlier work

Cc1cc(NC(=O)Nc2ccc(N=Nc3cc(S(=O)(=O)[O-])c4cccc(S(=O)(=O)[O-])c4c3)c(C)c2)ccc1N=Nc1cc(S(=O)(=O)[O-])c2cccc(S(=O)(=O)[O-])c2c1.[Na+].[Na+].[Na+].[Na+] [Direct Yellow 50]
inhibition of reverse transcriptase (reverse transcriptase): inhibitors of reverse transcriptase

dextran sulfate
anti-retroviral activity (retroviruses): known anti-retroviral compounds

COc1cc(N=Nc2c(S(=O)(=O)O)cc3cc(S(=O)(=O)O)cc(NC(=O)c4cccc(Cl)c4Cl)c3c2O)c(OC)cc1N=Nc1c(S(=O)(=O)O)cc2cc(S(=O)(=O)O)cc(NC(=O)c3ccc(Cl)cc3Cl)c2c1O [Compound 6]
inhibition at 1 µg/mL ([1]; 1.0 μg/ml): 0%
inhibition at 2.5 µg/mL ([1]; 2.5 μg/ml): 95%
inhibition at 5 µg/mL ([1]; 5 μg/ml): 99%
LD50 at 168 h (LD50, intravenous, mice): 130 mg/kg
inhibition at 2.5 µg/mL (HIV-1 patient isolate IH [2]; 10% FCS): 0%
inhibition at 5 µg/mL (HIV-1 patient isolate IH [2]; 10% FCS): 91%
inhibition at 10 µg/mL (HIV-1 patient isolate IH [2]; 10% FCS): 82%
inhibition at 20 µg/mL (HIV-1 patient isolate IH [2]; 10% FCS): 100%
inhibition at 2.5 µg/mL (HIV-1 patient isolate IH [2]; 50% Human Serum): 13%
inhibition at 5 µg/mL (HIV-1 patient isolate IH [2]; 50% Human Serum): 80%
inhibition at 10 µg/mL (HIV-1 patient isolate IH [2]; 50% Human Serum): 90%
inhibition at 20 µg/mL (HIV-1 patient isolate IH [2]; 50% Human Serum): 100%
inhibition at 0.5 µM [3]: 32%
inhibition at 5 µM ([3]; at 5.0 μM): 80%
inhibition at 0.3 µg/mL (HIV-1 RF; 10% FCS, 0.3 μg/ml): 99%
inhibition at 0.6 µg/mL (HIV-1 RF; 10% FCS): 100%
inhibition at 1.25 µg/mL (HIV-1 RF; 10% FCS): 100%
inhibition at 2.5 µg/mL (HIV-1 RF; 10% FCS): 100%
inhibition at 5 µg/mL (HIV-1 RF; 10% FCS): 100%
inhibition at 0.6 µg/mL (HIV-1 RF; 50% Human Serum): 63%
inhibition at 1.25 µg/mL (HIV-1 RF; 50% Human Serum): 64%
inhibition at 2.5 µg/mL (HIV-1 RF; 50% Human Serum): 99%
inhibition at 5 µg/mL (HIV-1 RF; 50% Human Serum): 100%
Ames Test result [4]: Negative
detectable HIV specific p24 in mice (HIV-1 RF strain; SCID-hu mice, 50 mg/kg ip daily for five days): none of the 8 mice receiving Compound 6 had any detectable HIV specific p24 above the background of the no virus control
P24 Day 28 (HIV-1 RF strain; SCID-hu mice, 50 mg/kg ip daily for five days, one value per mouse, coculture supernatant, 50 mg/kg): 46.36 pg/mL and 35.44 pg/mL and 32.61 pg/mL and 40.90 pg/mL and 34.41 pg/mL and 34.36 pg/mL and 49.46 pg/mL and 58.02 pg/mL
prevention of infection of reconstituted human immune cells (HIV-1 RF strain; treatment for 5 days): sufficient to prevent infection of reconstituted human immune cells in an animal model

CC1=C/C(=C(\c2ccc(N)c(S(=O)(=O)[O-])c2)c2ccc(N)c(S(=O)(=O)O)c2)C=C(S(=O)(=O)[O-])C1=N.[Na+].[Na+] [Fuchsin Acid, reference compound]
LD50 (LD50, intravenous, mice; 10080 min): 100 mg/kg
inhibition of syncytium formation (syncytium formation): inhibitors of syncytium formation

COc1cc(N=Nc2c(S(=O)(=O)O)cc3cc(S(=O)(=O)O)cc(NC(=O)c4cccc5ccccc45)c3c2O)c(OC)cc1N=Nc1c(S(=O)(=O)O)cc2cc(S(=O)(=O)O)cc(NC(=O)c3ccc(Cl)cc3Cl)c2c1O [Compound 1]
LD50 at 168 h (LD50, intravenous, mice): 150 mg/kg
inhibition at 0.5 µM [3]: 70%
inhibition at 0.6 µg/mL (HIV-1 RF; 10% FCS): 98%
inhibition at 1.25 µg/mL (HIV-1 RF; 10% FCS): 100%
inhibition at 2.5 µg/mL (HIV-1 RF; 10% FCS): 100%
inhibition at 5 µg/mL (HIV-1 RF; 10% FCS): 100%
Ames Test result [4]: Negative
inhibition at 10 µg/mL (HIV-1 patient isolate IH [5]; 10 μg/ml): 50%
inhibition at 20 µg/mL (HIV-1 patient isolate IH [5]; 20 μg/ml): 100%

Cc1cc(-c2ccc(/N=N/c3ccc4c(S(=O)(=O)O)cc(S(=O)(=O)O)c(N)c4c3O)c(C)c2)ccc1/N=N/c1ccc2c(S(=O)(=O)O)cc(S(=O)(=O)O)c(N)c2c1O [Evans Blue, reference compound]
LD50 at 168 h (LD50, intravenous, mice): 100 mg/kg
inhibition at 0.5 µM [3]: 48%
inhibition of interaction of HIV rgp120 with CD4 cells (HIV rgp120 / CD4 cells): inhibitor of the interaction of HIV rgp120 with CD4 cells
Ames Test result [4]: Positive
Ames Test, specific mutagenic activity [4]: 10 colony no/μg
mutagenic effects in Ames Test (standard Ames Test): strong mutagenic effects

Cc1ccc(C(=O)Nc2ccc(S(=O)(=O)O)c3cc(S(=O)(=O)O)cc(S(=O)(=O)O)c23)cc1NC(=O)c1cccc(NC(=O)Nc2cccc(C(=O)Nc3cc(C(=O)Nc4ccc(S(=O)(=O)O)c5cc(S(=O)(=O)O)cc(S(=O)(=O)O)c45)ccc3C)c2)c1 [Suramin, reference compound]
LD50 at 168 h (LD50, intravenous, mice): 40 mg/kg
inhibitory effect against reverse transcriptase (in words) [3]: inhibitory effect against reverse transcriptase
inhibition at 0.5 µM [3]: 68%
inhibition at 1.25 µg/mL (HIV-1 RF; 10% FCS): 0%
inhibition at 2.5 µg/mL (HIV-1 RF; 10% FCS): 0%
inhibition at 5 µg/mL (HIV-1 RF; 10% FCS): 0%
inhibition of reverse transcriptase (reverse transcriptase): inhibitors of reverse transcriptase

COc1cc(-c2ccc(/N=N/c3ccc4c(S(=O)(=O)O)cc(S(=O)(=O)O)c(N)c4c3O)c(OC)c2)ccc1/N=N/c1ccc2c(S(=O)(=O)O)cc(S(=O)(=O)O)c(N)c2c1O [CSB, Chicago Sky Blue, reference compound]
LD50 at 168 h (LD50, intravenous, mice): 100 mg/kg
inhibitory effect against reverse transcriptase (in words) [3]: inhibitory effect against reverse transcriptase
inhibition at 0.6 µg/mL (HIV-1 RF; 10% FCS): 37%
inhibition at 1.25 µg/mL (HIV-1 RF; 10% FCS): 70%
inhibition at 2.5 µg/mL (HIV-1 RF; 10% FCS): 90%
Ames Test result [4]: Positive
Ames Test, specific mutagenic activity [4]: 10 colony no/μg
mutagenic effects in Ames Test (standard Ames Test): strong mutagenic effects
